Measurements as given in US20020049223A1, “Quinoline and naphthyridine carboxylic acid antibacterials” (priority 1999, published 2002).

Key:
[1] = system: Enterococcus faecalis PIU 1967; assay: Assay A: in vitro antibacterial activity, agar dilution MIC; assay type: cell-based; conditions: Table 1, Assay A, BHI agar, 35-37° C., about 20 to 24 hours; code B = Enterococcus faecalis PIU 1967; unit assumed
Protocol: (§1) Assay A. Determination of Biological Activity In Vitro Assay of Antibacterial Activity
(§2) Representative compounds of the invention were assayed in vitro for antibacterial activity. Twelve petri dishes containing successive aqueous dilutions of the test compound mixed with sterilized Brain Heart Infusion (BHI) agar (Difco 0418-01-5) (10 mL) were prepared. Each plate was inoculated with 1:100 (or 1:10 for slow-growing strains, such as Micrococcus and Streptococcus) dilutions of up to 32 different microorganisms using a Steers replicator block. The inoculated plates were incubated at 35-37° C. for about 20 to about 24 hours. In addition, a control plate with BHI agar and no test compound was prepared and incubated at the beginning and end of each test.
(§3) An additional plate containing a compound having known susceptibility patterns for the organisms being tested and belonging to the same antibiotic class as the test compound was also prepared and incubated as a further control and to provide test-to-test comparability. Ciprofloxacin was used for this purpose.
(§4) After incubation, each plate was visually inspected. The minimum inhibitory concentration (MIC) was defined as the lowest concentration of drug yielding no growth, a slight haze, or sparsely isolated colonies on the inoculum spot as compared to the growth control.

Escherichia coli JUHL = assay: as above; assay type: cell-based; conditions: Table 1, Assay A, BHI agar, 35-37° C., about 20 to 24 hours; code D = Escherichia coli JUHL; unit assumed
Protocol: as §1, §2, §3, §4

[2] = system: Haemophilus influenzae DILL AMP R; assay: as above; assay type: cell-based; conditions: Table 1, Assay A, BHI agar, 35-37° C., about 20 to 24 hours; code E = Haemophilus influenzae DILL AMP R; unit assumed
Protocol: as §1, §2, §3, §4

[3] = system: Moraxella catarrahalis 2604; assay: as above; assay type: cell-based; conditions: Table 1, Assay A, BHI agar, 35-37° C., about 20 to 24 hours; code C = Moraxella catarrahalis 2604; unit assumed
Protocol: as §1, §2, §3, §4

[4] = system: Staphylococcus aureus ATCC 6538P; assay: as above; assay type: cell-based; conditions: Table 1, Assay A, BHI agar, 35-37° C., about 20 to 24 hours; code A = Staphylococcus aureus ATCC 6538P; unit assumed
Protocol: as §1, §2, §3, §4

[5] = system: Streptococcus pneumoniae ATCC 6303; assay: as above; assay type: cell-based; conditions: Table 1, Assay A, BHI agar, 35-37° C., about 20 to 24 hours; code F = Streptococcus pneumoniae ATCC 6303; unit assumed
Protocol: as §1, §2, §3, §4

Row | SMILES | Antibacterial Activity (MIC's), B [1] | Antibacterial Activity (MIC's), D (Escherichia coli JUHL) | Antibacterial Activity (MIC's), E [2] | Antibacterial Activity (MIC's), C [3] | Antibacterial Activity (MIC's), A [4] | Antibacterial Activity (MIC's), F [5] | melting point
1 | COc1c(-c2cc3c(s2)CCC(O)C3)ccc2c(=O)c(C(=O)O)cn(C3CC3)c12 (stereo not shown) [Example 42, 1-cyclopropyl-7-(5-hydroxy-4,5,6,7-tetrahydro-1-benzothien-2-yl)-8-methoxy-4-oxo-1,4-dihydro-3-quinolinecarboxylic acid] | 0.39 µg/mL | 0.78 µg/mL | 0.125 µg/mL | 0.02 µg/mL | 0.02 µg/mL | 0.25 µg/mL | 232 to 233 °C
2 | COc1c(-c2cc3c(s2)CCNC3)ccc2c(=O)c(C(=O)O)cn(C3CC3)c12.Cl [Example 2, 1-cyclopropyl-8-methoxy-4-oxo-7-(4,5,6,7-tetrahydrothieno[3,2-c]pyridin-2-yl)-1,4-dihydro-3-quinolinecarboxylic acid hydrochloride] | 0.2 µg/mL | 0.2 µg/mL | 0.12 µg/mL | 0.2 µg/mL | 0.05 µg/mL | 0.5 µg/mL | 180 °C (dec.)
3 | COc1c(-c2cc3c(s2)CC(O)C3)ccc2c(=O)c(C(=O)O)cn(C3CC3)c12 (stereo not shown) [Example 45, 1-cyclopropyl-7-(5-hydroxy-5,6-dihydro-4H-cyclopentarblthien-2-yl)-8-methoxM-4-oxo-1,4-dihydro-3-quinolinecarboxylic acid] | 0.2 µg/mL | 0.39 µg/mL | 0.03 µg/mL | 0.1 µg/mL | 0.05 µg/mL | 0.25 µg/mL | 
4 | Br.CC1NCCc2sc(-c3ccc4c(=O)c(C(=O)O)cn(C5CC5)c4c3OC(F)F)cc21 (stereo not shown) [Example 20, 1-cyclopropyl-8-(difluoromethoxy)-7-(4-methyl-4,5,6,7-tetrahydrothieno[3,2-c]pyridin-2-yl)-4-oxo-1,4-dihydro-3-quinolinecarboxylic acid hydrobromide] | 0.78 µg/mL | 0.78 µg/mL | 0.25 µg/mL | 0.78 µg/mL | 0.2 µg/mL | 1 µg/mL | 176 to 180 °C (dec.)
5 | Br.CC1Cc2sc(-c3ccc4c(=O)c(C(=O)O)cn(C5CC5)c4c3)cc2CN1 (stereo not shown) [Example 13, 1-cyclopropyl-7-(6-methyl-4,5,6,7-tetrahydrothieno[3,2-c]pyridin-2-yl)-4-oxo-1,4-dihydro-3-quinolinecarboxylic acid hydrobromide] | 0.2 µg/mL | 0.2 µg/mL | 0.25 µg/mL | 0.2 µg/mL | 0.1 µg/mL | 0.25 µg/mL | 
6 | COc1c(-c2cc3c(s2)CNCC3)ccc2c(=O)c(C(=O)O)cn(C3CC3)c12.Cl [Example 7, 1-cyclopropyl-8-methoxy-4-oxo-7-(4,5,6,7-tetrahydrothieno(2,3-c)pyridin-2-yl)-1,4-dihydro-3-quinolinecarboxylic acid hydrochloride] | 0.39 µg/mL | 0.2 µg/mL | 0.06 µg/mL | 0.2 µg/mL | 0.2 µg/mL | 0.25 µg/mL | 188 to 189 °C
7 | COc1c(-c2cc3c(s2)SCCC3N)ccc2c(=O)c(C(=O)O)cn(C3CC3)c12.Cl (stereo not shown) [Example 37, 7-(4-amino-5,6-dihydro-4H-thieno[2,3-b]thiopyran-2-yl)-1-cyclopropyl-8-methoxy-4-oxo-1,4-dihydro-3-quinolinecarboxylic acid hydrochloride] | 0.1 µg/mL | 0.2 µg/mL | 0.125 µg/mL | 0.1 µg/mL | 0.05 µg/mL | 0.25 µg/mL | 
8 | CC1CNCc2sc(-c3ccc4c(=O)c(C(=O)O)cn(C5CC5)c4n3)cc21.Cl (stereo not shown) [Example 32, 1-cyclopropyl-7-(4-methyl-4,5,6,7-tetrahydrothieno(2,3-c)pyrdin-2-yl)-4-oxo-1,4-dihydro[1,8]naphthyridine-3-carboxylic acid hydrochloride] | 0.39 µg/mL | 0.39 µg/mL | 0.25 µg/mL | 0.2 µg/mL | 0.2 µg/mL | 1 µg/mL | 
9 | COc1c(-c2cc3c(s2)CC(O)CC3)ccc2c(=O)c(C(=O)O)cn(C3CC3)c12 (stereo not shown) [Example 47, 1-cyclopropyl-7-(6-hydroxy-4,5,6,7-tetrahydro-1-benzothien-2-yl)-8-methoxy-4-oxo-1,4-dihydro-3-quinolinecarboxylic acid] | 0.2 µg/mL | 1.56 µg/mL | 0.5 µg/mL | 0.02 µg/mL | 0.01 µg/mL | 0.5 µg/mL | 
10 | Br.CC1(C)CNCc2cc(-c3ccc4c(=O)c(C(=O)O)cn(C5CC5)c4c3OC(F)F)sc21 [Example 28] | 0.78 µg/mL | 0.78 µg/mL | 0.25 µg/mL | 0.2 µg/mL | 0.2 µg/mL | 1 µg/mL | 

Other lines, results leading:

Row | Antibacterial Activity (MIC's), B [1] | Antibacterial Activity (MIC's), D (Escherichia coli JUHL) | Antibacterial Activity (MIC's), E [2] | Antibacterial Activity (MIC's), C [3] | Antibacterial Activity (MIC's), A [4] | Antibacterial Activity (MIC's), F [5] | melting point | SMILES
11 | 0.78 µg/mL | 0.78 µg/mL | 0.25 µg/mL | 0.39 µg/mL | 0.2 µg/mL | 2 µg/mL | 293 to 294 °C | CC1NCCc2cc(-c3nc4c(cc3F)c(=O)c(C(=O)O)cn4C3CC3)sc21.Cl (stereo not shown) [Example 22, 1-cyclopropyl-6-fluoro-7-(7-methyl-4,5,6,7-tetrahydrothieno(2,3-c)pyridin-2-yl)-4-oxo-1,4-dihydro[1,8]naphthyridine-3-carboxylic acid hydrochloride]
12 | 0.78 µg/mL | 0.78 µg/mL | 0.06 µg/mL | 0.05 µg/mL | 0.05 µg/mL | 0.5 µg/mL |  | O=C(O)c1cn(C2CC2)c2nc(-c3cc4c(s3)CCCC4O)c(F)cc2c1=O (stereo not shown) [Example 35, 1-cyclopropyl-6-fluoro-7-(4-hydroxy-4,5,6,7-tetrahydro-1-benzothien-2-yl)-4-oxo-1,4-dihydro[1,8]naphthyridine-3-carboxylic acid]
13 | 0.2 µg/mL | 0.1 µg/mL | 0.06 µg/mL | 0.1 µg/mL | 0.1 µg/mL | 0.125 µg/mL | 290 to 291 °C | Cl.O=C(O)c1cn(C2CC2)c2nc(-c3cc4c(s3)CNCC4)c(F)cc2c1=O [Example 9, 1-cyclopropyl-6-fluoro-4-oxo-7-(4,5,6,7-tetrahydrothieno(2,3-c)pyridin-2-yl)-1,4-dihydro[1,8]naphthyridine-3-carboxylic acid hydrochloride]
14 | 0.39 µg/mL | 0.78 µg/mL | 0.06 µg/mL | 0.05 µg/mL | 0.05 µg/mL | 0.25 µg/mL |  | O=C(O)c1cn(C2CC2)c2nc(-c3cc4c(s3)CCC/C4=N\O)c(F)cc2c1=O [Example 49, 1-cyclopropyl-6-fluoro-7-((4E)-4-(hydroxyimino)-4,5,6,7-tetrahydro-1-benzothien-2-yl)-4-oxo-1,4-dihydro[1,8]naphthyridine-3-carboxylic acid]
15 | 0.2 µg/mL | 0.78 µg/mL | 0.06 µg/mL | 0.02 µg/mL | 0.02 µg/mL | 0.25 µg/mL |  | O=C1CCCc2sc(-c3nc4c(cc3F)c(=O)c(C(=O)O)cn4C3CC3)cc21 [Example 48, 1-cyclopropyl-6-fluoro-4-oxo-7-(4-oxo-4,5,6,7-tetrahydro-1-benzothien-2-yl)-1,4-dihydro[1,8]naphthyridine-3-carboxylic acid]
16 | 0.1 µg/mL | 0.2 µg/mL | 0.06 µg/mL | 0.1 µg/mL | 0.02 µg/mL | 0.125 µg/mL | 219 to 222 °C | COc1c(-c2cc3c(s2)CCCC3N)ccc2c(=O)c(C(=O)O)cn(C3CC3)c12.Cl (stereo not shown) [Example 40, 7-(4-amino-4,5,6,7-tetrahydro-1-benzothien-2-yl)-1-cyclopropyl-8-methoxy-4-oxo-1,4-dihydro-3-quinolinecarboxylic acid hydrochloride]
